Consider 1 compound from patent US6617117B1, “MAP kinases: polypeptides, polynucleotides and uses thereof” (Medical Research Council, priority 1996, dated 2003).

This assay concerns the target T1, human SAPK3 (Homo sapiens, UniProt P53778).
T1 construct: made in house; host or cells: E. coli BL21(DE3)
T1 sequence (P53778 1-367): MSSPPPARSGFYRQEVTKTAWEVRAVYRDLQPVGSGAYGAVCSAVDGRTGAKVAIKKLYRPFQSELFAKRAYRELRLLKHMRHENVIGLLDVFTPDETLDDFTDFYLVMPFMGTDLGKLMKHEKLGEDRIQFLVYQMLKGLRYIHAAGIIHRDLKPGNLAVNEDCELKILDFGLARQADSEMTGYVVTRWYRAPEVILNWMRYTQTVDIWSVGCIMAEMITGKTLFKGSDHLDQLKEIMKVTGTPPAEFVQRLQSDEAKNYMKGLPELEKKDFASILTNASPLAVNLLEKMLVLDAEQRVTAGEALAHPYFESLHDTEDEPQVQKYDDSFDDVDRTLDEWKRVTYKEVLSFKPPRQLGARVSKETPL
Kind of assay: Inhibition of SAPK3, MBP phosphorylation (FIG. 9). It counts as biochemical. On the procedure: SAPK4, SAPK2a and SAPK2b were assayed routinely by the phosphorylation of MBP, exactly as described for SAPK3 in Example 4 and Cuenda et al, 1997. One unit of activity was that amount of enzyme which incorporated 1 nmol of phosphate into MBP in 1 min. SAPK4 activators were assayed by their ability to activate GST-SAPK4, as described for GST-SAPK3 in Example 4 and Cuenda et al, 1997. Control experiments were carried out in which GST-SAPK4 was omitted. One unit of SAPK4 activator was that amount which increased SAPK4 activity by I U/min. […] SAPK2a activators were assayed by their ability to activate the X. laevis homologue of SAPK2a (Meier et al, 1996). Activated SAPK2a itself was measured by the activation of GST-MAPKAP-K2(46400).
Protein kinase assays. SAPK3 was assayed routinely by the phosphorylation of MBP. SAPK3 (0.5 or 1 μM) in 40 μl of 25 mM Tris/HCl pH 7.5, 0.1 mM EGTA, 0.1 mM sodium orthovanadate, 1 μM PKI and 0.33 mg/ml MBP was incubated for 3 min at 30° C. before initiating the reaction with 10 μl of 50 mM magnesium acetate-0.5 mM [γ-^32P]ATP. After 20 min at 30° C. 40 μl aliquots were withdrawn, spotted on to 1.5×1.5 cm squares of Whatman P81 phosphocellulose paper and immersed in 75 mM phosphoric acid. After washing and drying the papers (Alessi et al, 1995b), ^32P radioactivity incorporated into MBP was measured. One unit of activity was that amount of enzyme which incorporated 1 nmol of phosphate into MBP in 1 min.

SMILES strings stand for the structures.

For `C[S+]([O-])c1ccc(-c2nc(-c3ccncc3)c(-c3ccc(F)cc3)[nH]2)cc1` (centres unmarked) [SB 203580], where the note is “SAPK3 activated by SKK3 in vitro”, the “Inhibition of SAPK3” value is on record as “not inhibited”. Further, the “Inhibition of dephosphorylated form of SAPK3” value (dephosphorylated form, <0.1% of the activity of the phosphorylated form, data not shown) is given as “failed to inhibit”.
